Format in all cases: cell-based
The subject of experiment [1] is HCV 1a RLuc cells (dicistronic genotype 1a H77 replicon, RLuc reporter). The experiment is described as follows: microbe, parasite or virus in culture. Particulars: Hepatitis C virus, genotype 1a H77 RLuc replicon; read-out: 1a. The gist of the method: (§1)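 Replicons used: genotype 1b Con1, 1a H77, 2a JFH-1, and a 2a JFH-1 chimera with J6-strain NS5A (M31 present), all dicistronic.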
In general terms: In antiviral work, replicon cells carry a viral genome segment that copies itself.

The test system of experiment [2] is HCV 1b RLuc cells (dicistronic genotype 1b Con1 replicon, RLuc reporter). The experiment is described as follows: microbe, parasite or virus in culture. Particulars: Hepatitis C virus, read-out: 1b (nM). In a few lines:
as §1

Experiment [3] deals with HCV 2a JFH-1 Rluc cells (dicistronic genotype 2a JFH-1 replicon, RLuc reporter). The experiment is described as follows: microbe, parasite or virus in culture. Particulars: Hepatitis C virus, genotype 2a JFH-1 RLuc replicon; read-out: 2a JFH. The gist of the method:
as §1

Experiment [4] has as its system HCV 2b Rluc cells (NS5A chimeric genotype 2a JFH-1 replicon with genotype 2b MD2b-1 NS5A gene, M31 present). The experiment is described as follows: microbe, parasite or virus in culture. Particulars: Hepatitis C virus, read-out: 2b. The gist of the method:
(§2)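 Replicon cells stably carrying the listed RLuc-encoding dicistronic replicons were seeded and treated with DMSO serial dilutions of compound (10 mM stocks) diluted into culture medium. After 72 h, cells were lysed and Renilla luciferase activity measured. EC50 was derived by non-linear regression.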

Experiment [5] relates to HCV 4a Rluc cells (NS5A chimeric genotype 1b Con1 replicon with genotype 4a NS5A gene). The experiment is described as follows: microbe, parasite or virus in culture. To be noted: Hepatitis C virus, read-out: 4a. In a few lines: as §2
For experiment [6], the system named is HCV 2a Rluc cells (NS5A chimeric genotype 2a JFH-1 replicon with genotype 2a J6 strain NS5A gene, M31 present). Put plainly: HCV replicon reporter assay, genotype 2a J6 (M31 present). Particulars: Hepatitis C virus, read-out: 2a J6. The gist of the method: as §1

Bounds are passed on as bounds.

Take `COC(=O)N[C@H](C(=O)N1CCC[C@H]1c1ncc(-c2cc3c4c(c2)OCc2cc(-c5cnc([C@@H]6CCCN6C(=O)[C@H](NC(=O)c6ccccn6)c6ccccc6)[nH]5)cc(c2-4)OC3)[nH]1)C(C)C` [Example 522]: the EC50 in experiment [1] was 0.001 to 0.999 nM; in experiment [2] it was 0.023 nM; in experiment [3], 0.001 to 0.999 nM; in experiment [4], 0.001 to 0.999 nM; in experiment [5] it was 0.001 to 0.99 nM; in experiment [6] it was above 44 nM.

As to `COC[C@H]1C[C@@H](c2nc3ccc4cc(-c5ccc(-c6[nH]c([C@@H]7CCCN7C(=O)[C@@H](NC(=O)OC)C(C)C)nc6C)cc5)ccc4c3[nH]2)N(C(=O)[C@@H](NC(=O)OC)C(C)C)C1` [Example 524], the EC50 in experiment [1] was 0.001 to 0.999 nM; in experiment [2] it was 0.02 nM; in experiment [3] it was 0.001 to 0.999 nM; in experiment [4], 1 to 44 nM; in experiment [5], 0.001 to 0.99 nM; in experiment [6], above 44 nM.

Turning to `COC(=O)N[C@H](C(=O)N1CCC[C@H]1c1nc2ccc3cc(-c4ccc5c(ccc6nc([C@@H]7C[C@H](COC(F)F)CN7C(=O)[C@H](NC(=O)OC)c7ccccc7)[nH]c65)c4)ccc3c2[nH]1)C(C)C` [Example 528], the EC50 is 0.001 to 0.999 nM in experiment [1]; 0.01 nM in experiment [2]; 0.001 to 0.999 nM in experiment [3]; 0.001 to 0.999 nM in experiment [4]; 0.001 to 0.99 nM in experiment [5]; 0.001 to 0.999 nM in experiment [6].

Take `CC[C@H](C)[C@H](NC(=O)OC)C(=O)N1[C@@H]2C[C@@H]2C[C@H]1c1nc2ccc3cc(-c4ccc5c(ccc6nc([C@@H]7C[C@H](COC)CN7C(=O)[C@H](NC(=O)OC)c7ccccc7)[nH]c65)c4)ccc3c2[nH]1` [Example 529]: the EC50 in experiment [1] was 0.001 to 0.999 nM; in experiment [2], 0.013 nM; in experiment [3], 0.001 to 0.999 nM; in experiment [4] it was 0.001 to 0.999 nM; in experiment [5], 0.001 to 0.99 nM; in experiment [6], 0.001 to 0.999 nM.

Regarding `COC[C@H]1C[C@@H](c2nc3ccc4cc(-c5ccc6c(ccc7nc([C@@H]8C[C@H]9C[C@H]9N8C(=O)[C@@H](NC(=O)OC)C(C)(C)C)[nH]c76)c5)ccc4c3[nH]2)N(C(=O)[C@H](NC(=O)OC)c2ccccc2)C1` [Example 530], the EC50 is 0.001 to 0.999 nM in experiment [1]; 0.011 nM in experiment [2]; 0.001 to 0.999 nM in experiment [3]; 0.001 to 0.999 nM in experiment [4]; 0.001 to 0.99 nM in experiment [5]; 0.001 to 0.999 nM in experiment [6].

In the case of `CC[C@H](C)[C@H](NC(=O)OC)C(=O)N1[C@@H]2C[C@@H]2C[C@H]1c1nc2ccc3cc(-c4ccc5c(ccc6nc([C@@H]7C[C@H](COC)CN7C(=O)[C@H](NC(=O)C7CC7)c7ccccc7)[nH]c65)c4)ccc3c2[nH]1` [Example 531], the EC50 in experiment [1] is 0.001 to 0.999 nM; in experiment [2], 0.018 nM; in experiment [3] it was 0.001 to 0.999 nM; in experiment [4], 0.001 to 0.999 nM; in experiment [5], 0.001 to 0.99 nM; in experiment [6], 0.001 to 0.999 nM.

For the compound `COC[C@H]1C[C@@H](c2nc3ccc4cc(-c5ccc6c(ccc7nc([C@@H]8C[C@H]9C[C@H]9N8C(=O)[C@@H](NC(=O)OC)C(C)(C)C)[nH]c76)c5)ccc4c3[nH]2)N(C(=O)[C@H](NC(=O)C2CC2)c2ccccc2)C1` [Example 532], the EC50 was 0.001 to 0.999 nM in experiment [1]; 0.009 nM in experiment [2]; 0.001 to 0.999 nM in experiment [3]; 0.001 to 0.999 nM in experiment [4]; 0.001 to 0.99 nM in experiment [5]; 0.001 to 0.999 nM in experiment [6].

In the case of `COC[C@H]1C[C@@H](c2nc3ccc4cc(-c5ccc(-c6cnc([C@@H]7CCCN7C(=O)[C@@H](NC(=O)OC)C(C)C)[nH]6)cc5)ccc4c3[nH]2)N(C(=O)[C@H](NC(=O)C2CCC2)c2ccccc2)C1` [Example 533], the EC50 was 0.001 to 0.999 nM in experiment [1]; 0.012 nM in experiment [2]; 0.001 to 0.999 nM in experiment [3]; 0.001 to 0.999 nM in experiment [4]; 0.001 to 0.99 nM in experiment [5]; 0.001 to 0.999 nM in experiment [6].

With `CC[C@H](C)[C@H](NC(=O)OC)C(=O)N1CCC[C@H]1c1ncc(-c2ccc(-c3ccc4c(ccc5nc([C@@H]6C[C@H](COC)CN6C(=O)[C@H](NC(=O)C6CC6)c6ccccc6)[nH]c54)c3)cc2)[nH]1` [Example 534], the EC50 was 0.001 to 0.999 nM in experiment [1]; 0.011 nM in experiment [2]; 0.001 to 0.999 nM in experiment [3]; 0.001 to 0.999 nM in experiment [4]; 0.001 to 0.99 nM in experiment [5]; 0.001 to 0.999 nM in experiment [6].

Consider `COC(=O)N[C@H](C(=O)N1CCC[C@H]1c1nc2ccc3cc(-c4ccc5c(ccc6nc([C@@H]7C[C@H](SC)CN7C(=O)[C@H](NC(=O)OC)c7ccccc7)[nH]c65)c4)ccc3c2[nH]1)C(C)C` [Example 535], for which the EC50 in experiment [1] is 0.001 to 0.999 nM; in experiment [2], 0.022 nM; in experiment [3], 0.001 to 0.999 nM; in experiment [4], 0.001 to 0.999 nM; in experiment [5] it was 0.001 to 0.99 nM; in experiment [6], 0.001 to 0.999 nM.

Regarding `COC[C@H]1C[C@@H](c2nc3ccc4cc(-c5ccc6c(ccc7nc([C@@H]8CCCN8C(=O)[C@@H](NC(=O)OC)C(C)C)[nH]c76)c5)ccc4c3[nH]2)N(C(=O)[C@H](NC(=O)C2CCC2)c2ccccc2)C1` [Example 537], the EC50 in experiment [1] is 0.001 to 0.999 nM; in experiment [2], 0.014 nM; in experiment [3] it was 0.001 to 0.999 nM; in experiment [4], 0.001 to 0.999 nM; in experiment [5] it was 0.001 to 0.99 nM; in experiment [6] it was 0.001 to 0.999 nM.

For `COC[C@H]1C[C@@H](c2nc3ccc4cc(-c5ccc6c(ccc7nc([C@@H]8C[C@H](C)CN8C(=O)[C@@H](NC(=O)OC)C(C)C)[nH]c76)c5)ccc4c3[nH]2)N(C(=O)[C@H](NC(=O)C2CCC2)c2ccccc2)C1` [Example 541], the EC50 in experiment [1] was 0.001 to 0.999 nM; in experiment [2], 0.034 nM; in experiment [3], 0.001 to 0.999 nM; in experiment [4] it was 0.001 to 0.999 nM; in experiment [5], 0.001 to 0.99 nM; in experiment [6], 0.001 to 0.999 nM.

As for `COC[C@H]1C[C@@H](c2nc3ccc4cc(-c5ccc6c(ccc7nc([C@@H]8C[C@H](C)CN8C(=O)[C@@H](NC(=O)OC)C(C)C)[nH]c76)c5)ccc4c3[nH]2)N(C(=O)[C@H](NC(=O)C2CC(F)(F)C2)c2ccccc2)C1` [Example 542], the EC50 is 0.001 to 0.999 nM in experiment [1]; 0.05 nM in experiment [2]; 0.001 to 0.999 nM in experiment [3]; 0.001 to 0.999 nM in experiment [4]; 0.001 to 0.99 nM in experiment [5]; 0.001 to 0.999 nM in experiment [6].

Consider `COC[C@H]1C[C@@H](c2ncc(-c3ccc(-c4ccc(-c5cnc([C@@H]6C[C@H](C)CN6C(=O)[C@H](NC(=O)C6CC6)c6ccccc6)[nH]5)cc4)cc3)[nH]2)N(C(=O)[C@@H](NC(=O)OC)C(C)C)C1` [Example 557], for which the EC50 is 0.001 to 0.999 nM in experiment [1]; 0.028 nM in experiment [2]; 0.001 to 0.999 nM in experiment [3]; 0.001 to 0.999 nM in experiment [4]; 0.001 to 0.99 nM in experiment [5]; 0.001 to 0.999 nM in experiment [6].

In the case of `COC[C@H]1C[C@@H](c2nc3ccc4cc5c(cc4c3[nH]2)OCc2cc(-c3ccc4nc([C@@H]6CCCN6C(=O)[C@@H](NC(=O)OC)C(C)C)[nH]c4c3)ccc2-5)N(C(=O)[C@@H](NC(=O)OC)C(C)C)C1` [Example 563], the EC50 in experiment [1] is 0.001 to 0.999 nM; in experiment [2] it was 0.007 nM; in experiment [3] it was 0.001 to 0.999 nM; in experiment [4], above 44 nM; in experiment [5], 0.001 to 0.99 nM; in experiment [6], above 44 nM.
